Test results reported in patent publication US12297453B2, “Generation of norepinephrine neurons from human stem cells” (Wisconsin Alumni Research Foundation, priority 2020, dated 2025).

Key:
[1] = test system: human ESC-derived NE neurons; assay: Whole-cell patch clamp recording of spontaneous action potential firing; assay type: cell-based; details: 1 mM; reversed upon washing away
Protocol: gRNA was designed according to Benchling. Donor plasmid was generated by NEBuilder® HiFi DNA Assembly Master Mix (NEB, E2621S). Briefly, hPSCs were digested by TrypLE Express. Gene Pulser Xcell (Bio-Rad) was used for CRISPR/Cas9 delivery. Two-million cells were electroporated with 15 μg of sgRNA plasmid (pLenti-CRISPR) with 30 μg donor plasmid. Cells were plated at ˜150,000 cells/well of 6-well plate. Starting 24 hours after electroporation, 0.5 μg/ml puromycin were added to the culture medium. After 3 days of puromycin selection, hPSCs were switched to their normal culture medium and fed every other day until approximately 1-2 weeks after electroporation when distinct colonies were established. • Cell transplantation: Small aggregates of NE neural progenitors (day 10-day 12) were collected and suspended in artificial cerebral spinal fluid (aCSF) containing Rock inhibitor (0.5 μM), at a concentration of 100,000 cells/μl. 1 μl of cells were slowly injected into the left cortex (AP=+0.0 mm, ML=+1.8 mm, DV=−1.7 mm, from skull) of adult SCID mice (8-12 weeks) that were anesthetized with 1%-2% isoflurane mixed in oxygen. • Immunocytochemistry and flow cytometry: Immunocytochemistry was performed as described previously. […] After the last wash, cells were suspended in washing buffer and analyzed by flow cytometry (BD LSR or BD LSRII). […]

hESC-derived NE neurons = assay: NE content in supernatant of NE neuron culture by ELISA; assay type: cell-based, human
Protocol: gRNA was designed according to Benchling. Donor plasmid was generated by NEBuilder® HiFi DNA Assembly Master Mix (NEB, E2621S). Briefly, hPSCs were digested by TrypLE Express. Gene Pulser Xcell (Bio-Rad) was used for CRISPR/Cas9 delivery. Two-million cells were electroporated with 15 μg of sgRNA plasmid (pLenti-CRISPR) with 30 μg donor plasmid. Cells were plated at ˜150,000 cells/well of 6-well plate. Starting 24 hours after electroporation, 0.5 μg/ml puromycin were added to the culture medium. After 3 days of puromycin selection, hPSCs were switched to their normal culture medium and fed every other day until approximately 1-2 weeks after electroporation when distinct colonies were established. • Cell transplantation: Small aggregates of NE neural progenitors (day 10-day 12) were collected and suspended in artificial cerebral spinal fluid (aCSF) containing Rock inhibitor (0.5 μM), at a concentration of 100,000 cells/μl. 1 μl of cells were slowly injected into the left cortex (AP=+0.0 mm, ML=+1.8 mm, DV=−1.7 mm, from skull) of adult SCID mice (8-12 weeks) that were anesthetized with 1%-2% isoflurane mixed in oxygen. • Immunocytochemistry and flow cytometry: Immunocytochemistry was performed as described previously. See Huang et al., 2016, Sci Rep, 6:32600, doi:10.1038/srep32600. In brief, cells on coverslips were fixed in 4% neutral-buffered paraformaldehyde (PFA) for 10 minutes (min) at room temperature. Following rinsing with PBS, these cells were incubated in 0.2% Triton X-100 (in phosphate buffered saline (PBS)) for 10 min followed by 10% donkey serum (in PBS) at room temperature for 1 hour (h). The cells were then incubated with primary antibodies diluted in 5% donkey serum in 0.1% Triton X100 (in PBS) at 4° C. overnight, followed by fluorescently conjugated secondary antibodies at room temperature for 30 min. The nuclei were stained with Hoechst. Images were collected with a Nikon A1 laser-scanning confocal microscope. Flow cytometry was performed using Transcription Factor Buffer Set which is designed for transcription factor staining following manufacturer's instruction. Briefly, single cells were prepared using TrypLE Express Enzyme and fixed in the fixation buffer provided by the kit at 2-8° C. for 45 min. After 3 washings with the permeable buffer, primary antibodies were added to cells for 45 min at 2-8° C. in a light-tight box. Cells were washed three times before fluorescently conjugated secondary antibodies. Second antibodies were incubated with cells for 45 minutes at 2-8° C. in a light-tight box and followed by washing three times. After the last wash, cells were suspended in washing buffer and analyzed by flow cytometry (BD LSR or BD LSRII). […]

[2] = test system: GRABNE1m sensor-expressing NE neurons; assay: Fluorescence imaging of GRABNE1m sensor cells; assay type: cell-based, human; details: norepinephrine reuptake inhibitor treatment
[3] = test system: human NE neuron progenitor cells; details: in neural differentiation medium
Description: On day 5, change the medium without SB431542. […] Cells were feed daily.

Structure (SMILES) | sAP firing rate [1] | NE content in the supernatants (hESC-derived NE neurons) | GRABNE1m sensor intensity (extracellular norepinephrine) [2] | yield of human TH+/DBH+ NE neurons [3]
Clc1cccc(Cl)c1N=C1NCCN1 [Clonidine] | reduced the sAP firing rating significantly |  |  | 
CNCCCC12CCC(c3ccccc31)c1ccccc12 [Maprotiline] |  | increased the NE content | increase | 
CNCCC(Oc1ccccc1OC)c1ccccc1 (stereo not shown) [Nisoxetine] |  | increased the NE content | increase | 
CCOc1ccccc1OC(c1ccccc1)C1CNCCO1 (stereo not shown) [Reboxetine] |  | increased the NE content | increase | 
CNCC[C@@H](Oc1ccccc1C)c1ccccc1 [Tomoxetine] |  | increased the NE content | increase | 
Nc1ncnc2c1ncn2[C@@H]1O[C@@H]2COP(=O)(O)O[C@H]2[C@H]1O [cAMP] |  |  |  | boost yield
